“Also recorded” adds a separate entry of the source.
What was measured:
[1] = system: post-hypoxic myoclonus (auditory stimulus-induced myoclonic jerks); assay: rat cardiac arrest model of post-hypoxic myoclonus; format: in vivo, male Sprague-Dawley rats; settings: ip at 10, 30, 100 and 300 mg/kg, 48 hours after cardiac arrest; myoclonus score over 3 hours
Procedure: Brivaracetam is evaluated in a rat model of post-hypoxic myoclonus [Truong et al. (1994) Novel rat cardiac arrest model of post-hypoxic myoclonus. Mov. Disord. 9:201-206]. In this model, male Sprague-Dawley rats are subjected to mechanical-induced cardiac arrest for a short duration of time during which cerebral hypoxic insults are induced.
All surgical procedures are performed under deep anaesthesia (ketamine 85 mg/kg ip and xylazine 15 mg/kg ip). The cardiac arrest is initiated and maintained for a duration of 8 minutes by mechanically obstructing all the major cardiac blood vessels including the aorta by hooking up the vessels with an L-shaped loop inserted into the rat body cavity. […]
These animals show jerking movements in response to auditory stimuli and other features of myoclonus that are similar to those observed in human condition. […] The involuntary muscle jerks in response to each stimulus are scored as follows: 0=no jerks; 1=ear twitch; 2=ear and body jerk; 3=ear, head and shoulder jerk; 4=whole body jerk; and 5=whole body jerk with jumping.
Antimyoclonic activity of Brivaracetam, administered ip at 10, 30, 100 and 300 mg/kg, is evaluated 48 hours after the cardiac arrest. The myoclonus score is recorded at 30 min interval over a period of 3 hours after dosing, in groups of 6 rats per dose.

[2] = system: audiogenic seizures; assay: audiogenic seizures in sound-sensitive mice; format: in vivo, male genetically sound-sensitive mice; settings: i.p. -30 min, 95% confidence interval in parentheses
Procedure: Brivaracetam is tested in male genetically sound-sensitive mice (16-28 g; N=10 per group) responding with wild running, clonic and tonic convulsions to an acoustic stimulation. Audiogenic seizures are induced by an acoustic stimulus (90 dB, 10-20 kHz) applied for 30 s. The mice are pre-treated with either saline or different doses of Brivaracetam (i.p. adm., −30 min.) and the proportion of mice protected against both clonic and tonic convulsions is used as the end point to assess anticonvulsant activity.

[3] = system: kindled seizures; assay: amygdala kindling in rats; format: in vivo, male Sprague-Dawley rats; settings: i.p. -60 min, 95% confidence interval in parentheses
Procedure: The effect of brivaracetam on kindled seizures is evaluated in male Sprague-Dawley rats (250-350 g) implanted with a bipolar stimulation/recording electrode into the right basolateral amygdala [AP-2.3, L-4.8, V-8.5 (Paxinos and Watson, 1982)], under pentobarbital anaesthesia. Kindling is induced by once daily stimulation, 5 days per week, with 500 μA monophasic square wave pulses, 50 Hz for 1 s (Löscher et al., 1986). The animals are considered kindled after the appearance of at least 10 consecutive stage 4 or 5 seizures according to the scale of Racine (Racine, 1972). Fully kindled rats (N=8 per group) are stimulated once with the same stimulation parameters as above after administration of saline (i.p., −60 min).
This procedure is repeated two days later, after pre-treatment with either saline or different doses of Brivaracetam (i.p., −60 min).
The behavioural effect of stimulation is graded according to the scale of Racine and the proportion of rats protected against generalised motor seizures (stage <3) is recorded.

[4] = system: spontaneous spike-and-wave discharges (SWDs); assay: spike-and-wave discharges in Genetic Absence Epilepsy Rats from Strasbourg; format: in vivo, male rats from the Genetic Absence Epilepsy Rat Strain; settings: 95% confidence interval in parentheses
Procedure: Male rats from the Genetic Absence Epilepsy Rat Strain are implanted with four platinum electrodes into the left and right frontal cortex and left and right occipital cortex, under pentobarbital anaesthesia. Cortical, spontaneous spike-and-wave discharges (SWDs) are recorded bilaterally from the rats placed into Plexiglass boxes, and prevented for falling asleep by gentle sensory stimulation. After a 20-min habituation period, the rats are injected i.p. with either saline or different doses of Brivaracetam and the EEG recorded continuously over consecutive 20-min intervals up to 120 min. The cumulative duration of the SWDs is calculated.

[5] = system: photoparoxysmal EEG response (PPR); assay: photoparoxysmal EEG response (PPR) study in photosensitive epileptic subjects; format: in vivo, human (Caucasian subjects with photosensitive epilepsy); settings: for Duration of response, Median (Range) / Time to first response, Median (Range): eye-closure condition, response = SPR change of at least 3 frequency steps
Procedure: The aim of the placebo-controlled, single blind, multi-centre study is to explore the photoparoxysmal EEG (Electroencephalogram) response (PPR) in photosensitive epileptic subjects after one single oral dose (10, 20, 40 and 80 mg) of brivaracetam (BRV).
In the study, nineteen Caucasian subjects with photosensitive epilepsy (15 females, 4 males) with stable PPR in at least one eye condition (eyes open, eyes closed, eye closure) are enrolled. During a 3-day period, subjects underwent standardized intermittent photic stimulation (IPS) at different frequencies to define the standard photosensitivity range (SPR) in frequency steps per subject at fixed time points over the day: predose (−0.5 h) and postdose (1, 2, 4, 6, 8, 24, 28, 32, 48, and 72 h). After the placebo baseline day (day 1), single oral doses of BRV are given, starting at 80 mg, with subsequent lowering or increasing of the dose depending on the results per 4 subjects.
A total of 18 subjects are evaluable. One subject appeared to be no longer sensitive on the baseline day and is therefore not evaluable. Under placebo administration almost no SPR changes from pre-dose in “eye-closure” condition are observed. Important SPR changes or even complete abolishment of the photosensitivity windows are observed after BRV administration at all tested doses.
Descriptive statistics (N, Median (range)) for time to first response and duration of response in “eye-closure” condition are given in the Table 3 below. Response is defined as a SPR change of at least 3 frequency steps.

[6] = 80 mg single oral dose, listed as BRV
[7] = all single doses (10, 20, 40, and 80 mg)

## CCC[C@@H]1CC(=O)N([C@@H](CC)C(N)=O)C1 [Brivaracetam, (2S)-2-[(4R)-2-oxo-4-propylpyrrolidinyl]butanamide]
[1]
  Antimyoclonic activity: active
[2]
  Protective effect ED50 value, clonic convulsions: 2.4 (1.4-4.0) mg/kg i.p.
  Protective effect ED50 value, tonic convulsions: 1.4 (0.9-2.1) mg/kg i.p.
[3]
  Protective effect ED50 value, secondary generalised seizures: 44 (24-84) mg/kg i.p.
[4]
  Protective effect ED50 value, duration of spike-and-wave discharges over 2 hours: 2.6 (0.85-8.1) mg/kg i.p.
[5]; 10 mg single oral dose
  Time to maximal reduction in SPR: 1.5 h
  Duration of response, Median (Range): 29.3 (7.5; 31.5) h
  Time to first response, Median (Range): 0.5 (0.5; 1.0) h
[5]; 10 mg single oral dose, reduction in the fourth patient
  Patients with abolishment of EEG response: three out of four
[5]; 20 mg single oral dose
  Time to maximal reduction in SPR: 1.0 h
  Duration of response, Median (Range): 27.5 (23.0; 31.5) h
  Time to first response, Median (Range): 0.5 (0.5; 1.0) h
[5]; 20 mg single oral dose, listed as BRV
  EEG response in all (evaluable) subjects: abolished; also recorded: complete suppression
[5]; 40 mg single oral dose
  Time to maximal reduction in SPR: 1.0 h
  Duration of response, Median (Range): 27.0 (23.5; 47.5) h
  Time to first response, Median (Range): 0.5 (0.5; 1.0) h
[5]; 80 mg single oral dose
  Time to maximal reduction in SPR: 0.5 h
  Duration of response, Median (Range): 59.5 (27.5; 71.5) h
  Time to first response, Median (Range): 0.5 (0.5; 0.5) h
[5]; [6]
  Duration of response, Median (Range): 59.5 h
  EEG response in all (evaluable) subjects: abolished; also recorded: complete suppression
[5]; after 10, 20, or 40 mg single oral dose
  Median duration of response: approximately 28 hours
[5]; all doses (10, 20, 40, 80 mg single oral dose)
  Median time to first response: 0.5 h
[5]; all doses (10, 20, 40, 80 mg single oral dose), human subjects
  Safety and tolerability: safe and well tolerated
[5]; [7]
  Subjects with abolished photoparoxysmal EEG response: 78%
  Subjects with reduced photoparoxysmal EEG response: 94%
